This note sets out measurements from patent US12024506B2, “Compounds” (Oxford University Innovation Limited, priority 2018, dated 2024).

The target in assay [1] is T1, GST-human KRas166 (G12V) GPPNHP (Homo sapiens, UniProt P01116, G12V).
T1 construct: made in house; host or cells: E. coli C41(DE3)
Kind of assay: KRas small-molecule screening by SPR (Biacore T200). The class given is binding. As to conditions: compound 100 uM, 5% DMSO buffer; immobilised GST-KRas166 (G12V) GPPNHP. The gist of the method: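 Biacore T200 screen: compounds at 100 uM final in 5% DMSO buffer (100 mM NaCl, 5 mM MgCl2) over GPPNHP-bound GST-KRas166 G12V captured by anti-GST antibody (10,000–15,000 RU) versus GST-only channel. Expected 1:1 Rmax 63 RU; DMSO solvent correction applied.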

Assay [2] concerns H358 cells (ATCC CRL-5807). In words: Cell viability assay 1 (CellTiter-Glo), H358 cells. It is filed as cell-based. As to conditions: Homo sapiens, NCI-H358, 48 h, first value of the cell, read-out: Cell Viability H358 (concentration that decreases cell viability by 50%). The method, then: (§1) Cells (A549 ATCC CCL-185) are cultured in Dulbecco's Modified Eagle's Medium plus 10% foetal calf serum and 2 mM L-glutamine at 37° C., 5% CO2. Cells are plated onto white clear bottom 96-well plates (5000 cells/well in 200 μl media) and left to adhere overnight at 37° C., 5% CO2. Next day, test compound (1 μl at 200× concentration in 100% DMSO) is added to give final test compound concentration 1× in 0.5% DMSO. After 48 h of incubation at 37° C., 5% CO2, 20 μl CellTiter-Glo reagent (Promega G7572) is added into each well. Plates are incubated at room temperature with shaking for 30 min and then luminescence is read using a PheraStar plate reader. The concentration of compounds that decrease cell viability by 50% is calculated from dose response curves generated using Dotmatics data analysis software.
In the H358 cell assay, cells (ATCC CRL-5807) are cultured in RPMI-1640 medium plus 10% foetal calf serum and 2 mM L-glutamine at 37° C., 5% CO2.

Assay [3] has as its system DLD1 cells (ATCC CCL-221). Kind of assay: Cell viability assay 1 (CellTiter-Glo), DLD1 cells. It is filed as cell-based. The conditions noted are these: Homo sapiens, DLD-1 cells, 48 h, second value of the cell, read-out: Cell Viability DLD-1 (concentration that decreases cell viability by 50%). As to the method: as §1
In the DLD1 cell assay, cells (ATCC CCL-221) are cultured in RPMI-1640 medium plus 10% foetal calf serum and 2 mM L-glutamine at 37° C., 5% CO2.

Take `COc1cccc(-c2cccc3c2OC(CNCc2ccc(OCCN(C)C)cc2)CO3)n1` (stereo not shown) [Example 26, {2-[4-({[8-(6-Methoxy-pyridin-2-yl)-2,3-dihydro-benzo[1,4]dioxin-2-ylmethyl]-amino}-methyl)-phenoxy]-ethyl}-dimethyl-amine]: in assay [1], the “SPR Response Units” value was 53 Response Units. In addition, the IC50 in assay [2] worked out at 95 µM; in assay [3], 4 µM.

With `COc1cccc(-c2cccc3c2OC(CN(Cc2ccc(OCCN(C)C)cc2)Cc2cccnc2)CO3)n1` (stereo not shown) [Example 31, {2-[4-({[8-(6-Methoxy-pyridin-2-yl)-2,3-dihydrobenzo[1,4]dioxin-2-ylmethyl]-pyridin3-ylmethyl-amino}-methyl)-phenoxy]-ethyl}-dimethyl-amine], the “SPR Response Units” value in assay [1] is listed as 119 Response Units. The figures for the IC50 in assay [2] and in assay [3] were 18 µM and 3 µM, respectively.

Regarding `COc1cccc(-c2cccc3c2OC(CN(Cc2ccc(OCCN(C)C)cc2)CC2CCOCC2)CO3)n1` (stereo not shown) [Example 32, [2-(4-{[[8-(6-Methoxy-pyridin-2-yl)-2,3-dihydro-benzo[1,4]dioxin-2-ylmethyl]-(tetrahydro-pyran-4-ylmethyl)-amino]-methyl}-phenoxy)-ethyl]-dimethyl-amine], the “SPR Response Units” value in assay [1] is 85 Response Units. The IC50 was determined as 17 µM in assay [2] and 7 µM in assay [3].

Take `COc1cccc(-c2cccc3c2OC(CNC(=O)c2ccc(OCCN(C)C)cc2F)CO3)n1` (stereo not shown) [Example 38, 4-(2-Dimethylamino-ethoxy)-2-fluoro-N-[8-(6-methoxy-pyridin-2-yl)-2,3-dihydro-benzo[1,4]dioxin-2-ylmethyl]-benzamide]: the “SPR Response Units” value in assay [1] was 335 Response Units. Moreover, the figures for the IC50 in assay [2] and in assay [3] were 58 µM and 3.6 µM, respectively.

In the case of `COc1cccc(-c2cccc3c2OC(CNC(=O)c2ccc(OCCN(C)C)cc2)CO3)n1` (stereo not shown) [Example 39, 4-(2-Dimethylamino-ethoxy)-N-[8-(6-methoxy-pyridin-2-yl)-2,3-dihydro-benzo[1,4]dioxin-2-ylmethyl]-benzamide], the “SPR Response Units” value in assay [1] amounted to 127 Response Units. Also, the IC50 in assay [2] was 79 µM; in assay [3], 5 µM.

On to `COc1cccc(-c2cccc3c2O[C@H](CNC(=O)c2ccc(OCCN(C)C)cc2)CO3)n1` [Example 40, 4-(2-Dimethylamino-ethoxy)-N-[(R)-8-(6-methoxy-pyridin-2-yl)-2,3-dihydro-benzo[1,4]dioxin-2-ylmethyl]-benzamide], for which the “SPR Response Units” value in assay [1] turned out to be 58 Response Units. The IC50 in assay [2] turned out to be 52 µM; in assay [3], 12 µM.

Consider `COc1cccc(-c2cccc3c2O[C@@H](CNC(=O)c2ccc(OCCN(C)C)cc2)CO3)n1` [Example 41, 4-(2-Dimethylamino-ethoxy)-N-[(S)-8-(6-methoxy-pyridin-2-yl)-2,3-dihydrobenzo [1,4]dioxin-2-ylmethyl]-benzamide], for which the “SPR Response Units” value in assay [1] worked out at 60 Response Units. Further, the results for the IC50 in assay [2] and in assay [3] were 48 µM and 20 µM, respectively.

With `COc1cccc(-c2cccc3c2OC(CNC(=O)c2ccc(CN4CCN(C)CC4)o2)CO3)n1` (stereo not shown) [Example 43, 5-(4-Methyl-piperazin-1-ylmethyl)-furan-2-carboxylic acid [8-(6-methoxy-pyridin-2-yl)-2,3-dihydro-benzo[1,4]dioxin-2-ylmethyl]-amide], the “SPR Response Units” value in assay [1] came out at 105 Response Units. In addition, the IC50 in assay [2] is over 100 µM; in assay [3] it was 19 µM.

For the compound `COc1cccc(-c2cccc3c2OC(CNC(=O)c2coc(CN4CCOCC4)c2)CO3)n1` (stereo not shown) [Example 46, 5-Morpholin-4-ylmethyl-furan-3-carboxylic acid [8-(6-methoxy-pyridin-2-yl)-2,3-dihydro-benzo[1,4]dioxin-2-ylmethyl]-amide], the “SPR Response Units” value in assay [1] amounted to 148 Response Units. Moreover, the IC50 in assay [2] and in assay [3] was over 100 µM throughout.

Turning to `COc1nc(-c2cccc3c2OCCO3)ccc1Nc1cccc(CN(C)C)c1` [Example 55, [6-(2,3-dihydro-benzo[1,4]dioxin-5-yl)-2-methoxy-pyridin-3-yl]-(3-dimethylaminomethyl-phenyl)-amine], the “SPR Response Units” value in assay [1] amounted to 130 Response Units. In addition, the figures for the IC50 in assay [2] and in assay [3] were 8 µM and 9.2 µM, respectively.

`COc1nc(-c2cccc3c2OCCO3)ccc1Nc1ccc(CN(C)C)cn1` [Example 57, [6-(2,3-Dihydro-benzo[1,4]dioxin-5-yl)-2-methoxy-pyridin-3-yl]-(5-dimethylaminomethyl-pyridin-2-yl)-amine]: the “SPR Response Units” value in assay [1] is 77 Response Units. The IC50 in assay [2] was determined as 29 µM; in assay [3], 20.2 µM.

Turning to `COc1nc(-c2cccc3c2OCCO3)ccc1Nc1ccc(Cn2ccnc2)cc1` [Example 58, [6-(2,3-Dihydro-benzo[1,4]dioxin-5-yl)-2-methoxy-pyridin-3-yl]-(4-imidazol-1-ylmethyl-phenyl)-amine], the “SPR Response Units” value in assay [1] is reported as 269 Response Units. Further, the results for the IC50 in assay [2] and in assay [3] were 19 µM and 16.2 µM, respectively.

As to `COc1nc(-c2cccc3c2OCCO3)ccc1Nc1cccc(CN2CCCC2)c1` [Example 60, [6-(2,3-Dihydro-benzo[1,4]dioxin-5-yl)-2-methoxy-pyridin-3-yl]-(3-pyrrolidin-1-ylmethyl-phenyl)-amine], the “SPR Response Units” value in assay [1] was determined as 108 Response Units. For the same compound, the figures for the IC50 in assay [2] and in assay [3] were 11.4 µM and 7.5 µM, respectively.

`COc1nc(-c2cccc3c2OCCO3)ccc1Nc1cccc(CN2CCOCC2)c1` [Example 61, [6-(2,3-Dihydro-benzo[1,4]dioxin-5-yl)-2-methoxy-pyridin-3-yl]-(3-morpholin-4-ylmethyl-phenyl)-amine]: in assay [1], the “SPR Response Units” value amounted to 61 Response Units. Moreover, the IC50 in assay [2] is 20.1 µM; in assay [3], 12.2 µM.

`COc1nc(-c2cccc3c2OCCO3)ccc1Nc1cccc(C2CCC(=O)N2)c1` (stereo not shown) [Example 62, 5-{3-[6-(2,3-Dihydro-benzo[1,4]dioxin-5-yl)-2-methoxy-pyridin-3-ylamino]-phenyl}-pyrrolidin-2-one]: the “SPR Response Units” value in assay [1] turned out to be 72 Response Units. In addition, the IC50 came out at 8.6 µM in assay [2] and 13.7 µM in assay [3].

Consider `COc1nc(-c2cccc3c2O[C@@H](CNC(=O)C2CCOCC2)CO3)ccc1Nc1cccc(CN(C)C)c1` [Example 69], for which the “SPR Response Units” value in assay [1] worked out at 128 Response Units. For the same compound, the IC50 in assay [2] was found to be 21 µM; in assay [3], 21.5 µM.

For the compound `CN(C)Cc1cccc(Nc2ccc(-c3cccc4c3OCCO4)cc2)c1.O=CO` [Example 70, [4-(2,3-Dihydro-benzo[1,4]dioxin-5-yl)-phenyl]-(3-dimethylaminomethyl-phenyl)-amine. formate salt], the “SPR Response Units” value in assay [1] amounted to 86 Response Units. In addition, the IC50 in assay [2] was found to be 8.6 µM; in assay [3], 10.6 µM.

Regarding `COc1nc(-c2cccc3c2OCCO3)ccc1Nc1cccc([C@H]2CCCN2)c1` [Example 74, [6-(2,3-Dihydro-benzo[1,4]dioxin-5-yl)-2-methoxy-pyridin-3-yl]-((R)-3-pyrrolidin-2-yl-phenyl)-amine], the “SPR Response Units” value in assay [1] was 110 Response Units. Also, the IC50 in assay [2] was 3.11 µM; in assay [3], 6 µM.

As to `COc1nc(-c2cccc3c2OCCO3)ccc1Nc1cccc([C@@H]2CCCN2)c1` [Example 75, [6-(2,3-Dihydro-benzo[1,4]dioxin-5-yl)-2-methoxy-pyridin-3-yl]-((S)-3-pyrrolidin-2-yl-phenyl)-amine], the “SPR Response Units” value in assay [1] is reported as 112 Response Units. Also, the figures for the IC50 in assay [2] and in assay [3] were 2.6 µM and 4 µM, respectively.

`COc1nc(-c2cccc3c2OCCO3)ccc1Nc1cccc(CNC(=O)c2cccnc2)c1` [Example 79, N-{3-[6-(2,3-Dihydro-benzo[1,4]dioxin-5-yl)-2-methoxy-pyridin-3-ylamino]-benzyl}-nicotinamide]: the “SPR Response Units” value in assay [1] was determined as 47 Response Units. In addition, the IC50 in assay [2] was 18 µM; in assay [3], 16.5 µM.

Take `COc1nc(-c2cccc3c2OCCO3)ccc1Nc1ccccc1C(=O)NCC1CCNCC1` [Example 150, 2-[6-(2,3-Dihydro-benzo[1,4]dioxin-5-yl)-2-methoxy-pyridin-3-ylamino]-N-piperidin-4-ylmethyl-benzamide]: the IC50 amounted to 12 µM in assay [2] and 2.5 µM in assay [3].

With `COc1nc(-c2cccc3c2OCCO3)ccc1Nc1cccc(C(=O)NCc2cn[nH]c2)c1` [Example 183, 3-[6-(2,3-Dihydro-benzo[1,4]dioxin-5-yl)-2-methoxy-pyridin-3-ylamino]-N-(1H-pyrazol-4-ylmethyl)-benzamide], the IC50 in assay [2] worked out at 15.5 µM; in assay [3] it was 8.4 µM.
